Among the data in ChEMBL document CHEMBL4033680, “Derivatives of caffeic acid, a natural antioxidant, as the basis for the discovery of novel nonpeptidic neurotrophic agents” (2017) are viability and Activity values, retold here.

SMILES strings stand for the structures. The source made the active and inactive calls. The calls are words filed in the database; no cut-off is given here.

Experiment [1] has as its system PC-12. In words: Neuroprotective activity against serum deprivation-induced cell death in rat PC12 cells assessed as cell survival at 25 uM after 48 hrs by MTT assay relative to control. It is filed as functional. Conditions: PC-12, 48 h, read-out: Survival. (Tetrazolium dyes change colour on reduction, which living cells bring about.)
Experiment [2] has as its system PC-12. Put plainly: Potentiation of NGF-induced neuronal differentiation in rat PC12 cells assessed as increase in number of neurites at 1 uM after 8 days by phase contrast micoscopy. It is filed as functional, cell-based.
In experiment [3] the test system is PC-12. In words: Potentiation of NGF-induced neuronal differentiation in rat PC12 cells assessed as increase in number of neurites at 25 uM after 8 days by phase contrast micoscopy. It is filed as functional, cell-based.
Experiment [4] concerns PC-12. Put plainly: Potentiation of NGF-induced neuronal differentiation in rat PC12 cells assessed as increase in number of neurites longer than 100 umeter at 25 uM after 8 days by phase contrast micoscopy. The experiment is classed as functional, cell-based.
The subject of experiment [5] is PC-12. Put plainly: Neuroprotective activity against serum deprivation-induced cell death in rat PC12 cells assessed as increase in cell survival at 25 uM after 48 hrs in presence of TrkA inhibitor K252a by MTT assay. It is filed as functional, cell-based.
Experiment [6] relates to PC-12. Put plainly: Induction of neurite outgrowth in rat PC12 cells assessed as increase in total number of neurites at 5 to 25 uM after 8 days by phase contrast micoscopy. It is filed as functional, cell-based.
In experiment [7] the test system is PC-12. In words: Potentiation of NGF-induced neuronal differentiation in rat PC12 cells assessed as increase in number of neurites at 5 uM after 8 days by phase contrast micoscopy. The experiment is classed as functional, cell-based.
The test system of experiment [8] is PC-12. Put plainly: Potentiation of NGF-induced neuronal differentiation in rat PC12 cells assessed as increase in number of neurites longer than 100 umeter at 5 uM after 8 days by phase contrast micoscopy. It is filed as functional, cell-based.
The target of experiment [9] is High affinity nerve growth factor receptor (Rattus norvegicus) (UniProt P35739). Put plainly: Potentiation of NGF-induced TrkA phosphorylation in rat PC12 cells at 5 to 25 uM after 60 mins by Western blot method. It is filed as cell-based.
Experiment [10] concerns PC-12. Put plainly: Potentiation of NGF-induced neuronal differentiation in rat PC12 cells assessed as increase in number of neurites after 8 days by phase contrast micoscopy. It is filed as functional, cell-based.
Experiment [11] concerns the target T1, Mitogen-activated protein kinase 1 and 3 (ERK2 and ERK1) (Rattus norvegicus) (UniProt P63086+P21708). Put plainly: Increase in NGF-induced ERK1/2 phosphorylation in rat PC12 cells at 5 to 25 uM after 2 hrs by immunoblotting method. The experiment is classed as cell-based. Background: In western blotting, separated proteins are transferred to a membrane and probed.

Experiment [12] has as its target T1, Mitogen-activated protein kinase 1 and 3 (ERK2 and ERK1) (Rattus norvegicus). In words: Increase in ERK1/2 phosphorylation in rat PC12 cells after 2 hrs by immunoblotting method. It is filed as cell-based.
Experiment [13] deals with RAC-alpha serine/threonine-protein kinase (Rattus norvegicus) (UniProt P47196). Put plainly: Increase in NGF-induced AKT phosphorylation in rat PC12 cells at 5 to 25 uM after 2 hrs by immunoblotting method. It is filed as cell-based.
Experiment [14] has the same target. In words: Increase in AKT phosphorylation in rat PC12 cells at 5 to 25 uM after 2 hrs by immunoblotting method. The experiment is classed as cell-based.
Experiment [15] addresses High affinity nerve growth factor receptor (Rattus norvegicus) (UniProt P35739). Put plainly: Activation of TrkA in rat PC12 cells assessed as increase in phospho-TrkA levels at 5 to 25 uM after 60 mins by Western blot method. The experiment is classed as cell-based.

RAC-alpha serine/threonine-protein kinase (Rattus norvegicus), sequence (P47196 whole entry): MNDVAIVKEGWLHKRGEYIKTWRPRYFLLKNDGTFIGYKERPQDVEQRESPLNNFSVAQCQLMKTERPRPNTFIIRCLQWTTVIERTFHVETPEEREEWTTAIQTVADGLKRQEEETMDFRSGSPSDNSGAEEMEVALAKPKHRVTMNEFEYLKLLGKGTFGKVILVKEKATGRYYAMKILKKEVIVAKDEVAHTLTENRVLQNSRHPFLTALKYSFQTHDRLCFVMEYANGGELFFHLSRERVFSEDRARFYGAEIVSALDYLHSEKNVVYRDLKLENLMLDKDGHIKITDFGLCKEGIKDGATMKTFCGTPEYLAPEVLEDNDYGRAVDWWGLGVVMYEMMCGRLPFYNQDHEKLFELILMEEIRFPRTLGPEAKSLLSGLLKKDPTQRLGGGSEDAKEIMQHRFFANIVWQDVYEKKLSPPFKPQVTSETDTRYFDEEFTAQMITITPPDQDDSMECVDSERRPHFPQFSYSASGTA
High affinity nerve growth factor receptor (Rattus norvegicus), sequence (P35739 whole entry): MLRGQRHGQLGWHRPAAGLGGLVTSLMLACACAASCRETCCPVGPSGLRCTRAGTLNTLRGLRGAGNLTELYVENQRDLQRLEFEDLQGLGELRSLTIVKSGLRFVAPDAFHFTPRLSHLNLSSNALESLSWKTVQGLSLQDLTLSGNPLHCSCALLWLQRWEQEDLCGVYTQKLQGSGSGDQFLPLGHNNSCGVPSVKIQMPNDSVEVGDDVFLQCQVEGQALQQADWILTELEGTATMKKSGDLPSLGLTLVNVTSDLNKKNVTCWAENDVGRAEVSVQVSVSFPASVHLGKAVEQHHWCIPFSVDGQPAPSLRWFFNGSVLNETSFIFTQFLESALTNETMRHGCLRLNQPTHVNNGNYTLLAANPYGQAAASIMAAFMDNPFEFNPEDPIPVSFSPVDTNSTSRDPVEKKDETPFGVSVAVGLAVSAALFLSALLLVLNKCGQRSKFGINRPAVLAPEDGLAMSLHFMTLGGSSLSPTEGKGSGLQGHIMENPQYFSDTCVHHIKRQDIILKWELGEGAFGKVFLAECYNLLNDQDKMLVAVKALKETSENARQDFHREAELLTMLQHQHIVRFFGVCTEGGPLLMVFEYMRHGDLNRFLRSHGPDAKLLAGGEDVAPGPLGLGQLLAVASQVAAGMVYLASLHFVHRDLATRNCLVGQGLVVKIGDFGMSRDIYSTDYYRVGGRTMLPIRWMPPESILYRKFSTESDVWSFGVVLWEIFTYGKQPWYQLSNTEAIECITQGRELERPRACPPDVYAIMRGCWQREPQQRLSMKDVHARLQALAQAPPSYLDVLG
T1 sequence (P21708 whole entry, looked up): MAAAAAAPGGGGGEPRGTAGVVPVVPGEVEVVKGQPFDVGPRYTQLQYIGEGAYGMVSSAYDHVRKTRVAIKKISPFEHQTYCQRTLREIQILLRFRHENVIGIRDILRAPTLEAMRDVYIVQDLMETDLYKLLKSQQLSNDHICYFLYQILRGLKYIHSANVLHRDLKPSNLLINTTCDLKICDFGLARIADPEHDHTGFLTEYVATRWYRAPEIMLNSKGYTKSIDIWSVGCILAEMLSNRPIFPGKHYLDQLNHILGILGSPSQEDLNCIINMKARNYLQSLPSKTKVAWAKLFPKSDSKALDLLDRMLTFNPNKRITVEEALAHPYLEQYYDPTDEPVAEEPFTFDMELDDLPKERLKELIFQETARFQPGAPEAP
T1 sequence (P63086 whole entry, looked up): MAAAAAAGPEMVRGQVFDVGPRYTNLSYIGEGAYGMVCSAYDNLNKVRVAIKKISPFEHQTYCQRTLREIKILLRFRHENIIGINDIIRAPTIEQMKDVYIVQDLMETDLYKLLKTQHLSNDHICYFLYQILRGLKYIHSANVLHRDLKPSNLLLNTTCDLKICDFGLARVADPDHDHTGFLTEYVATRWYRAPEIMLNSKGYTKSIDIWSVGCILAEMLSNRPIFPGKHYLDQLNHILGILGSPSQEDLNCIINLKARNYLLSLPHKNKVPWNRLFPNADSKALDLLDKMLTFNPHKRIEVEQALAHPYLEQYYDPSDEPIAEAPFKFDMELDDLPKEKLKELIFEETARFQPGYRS

On to `CCCNC(=O)/C=C/c1ccc(O)c(O)c1`, for which, in the experiment on PC-12 [1], the viability at 25 µM worked out at 158%. Further, the outcome in the experiment on PC-12 [2], with PC-12 [5] and with PC-12 [6] was inactive. Further, the outcome in the experiment on PC-12 [3] and with PC-12 [4] was Active.
For the molecule `CCCCCCCCNC(=O)/C=C/c1ccc(O)c(O)c1`, the viability at 25 µM in the experiment on PC-12 [1] turned out to be 158%. Also, the outcome in the experiment on PC-12 [2], with PC-12 [5] and in the experiment with PC-12 [6] was inactive. Besides, the result with PC-12 [3], in the experiment on PC-12 [4], in the experiment with PC-12 [7] and in the experiment with PC-12 [8] was Active.
As to `CCCCCCNC(=O)/C=C/c1ccc(O)c(O)c1` [CAFFEOYLHEXYLAMIDE], in the experiment with PC-12 [1], the viability at 25 µM came to 183%. Moreover, the result with PC-12 [2], in the experiment on PC-12 [5] and in the experiment on PC-12 [6] was inactive. The result in the experiment with PC-12 [3], with PC-12 [4], in the experiment on PC-12 [7] and in the experiment with PC-12 [8] was Active.
As to `CCCCCCCCCCCCNC(=O)/C=C/c1ccc(O)c(O)c1`, the viability at 25 µM with PC-12 [1] turned out to be 230%. Further, the outcome (in [9]; in the experiment on PC-12 [10]; with PC-12 [5]; in [13]; in [15]) was inactive. The outcome in experiment [11] and in [14] was Active. Besides, in [12], the Activity result was “Dose-dependent effect”.
As to `CCCCNC(=O)/C=C/c1ccc(O)c(O)c1`, the viability at 25 µM in the experiment on PC-12 [1] was 202%. The outcome (in experiment [9]; in the experiment on PC-12 [2]; in the experiment on PC-12 [5]; in experiment [13]; in experiment [14]; in experiment [15]) was inactive. For the same molecule, the result in the experiment with PC-12 [6] was inactive. For the same molecule, the result (in the experiment with PC-12 [3]; with PC-12 [4]; in experiment [11]; in the experiment with PC-12 [7]; in the experiment on PC-12 [8]) was Active. In addition, the Activity result in experiment [12] is “Dose-dependent effect”.
In the case of `CCCCCCCCCCNC(=O)/C=C/c1ccc(O)c(O)c1`, the viability at 25 µM in the experiment with PC-12 [1] came to 193%. The outcome in the experiment on PC-12 [10] and with PC-12 [5] was inactive.
